The values below come from ChEMBL document CHEMBL5500327, “Targeting insulin-like growth factor 2 mRNA-binding proteins (IGF2BPs) for the treatment of cancer” (Eur J Med Chem, 2024).

The target in data set [1] is Insulin-like growth factor 2 mRNA-binding protein 2 (Homo sapiens, UniProt Q9Y6M1). The data set can be described thus: Binding affinity to Histidine-tagged IMP-2 (unknown origin) assessed as dissociation constant by fluorescence polarization assay.
The target in data set [2] is T1, Insulin-like growth factor 2 mRNA-binding protein 1 (Homo sapiens, UniProt Q9NZI8). Kind of data set: Inhibition of full length recombinant IGF2BP1 (unknown origin) by fluorescence polarization assay. For orientation: Fluorescence polarisation rises when a labelled molecule tumbles more slowly, as on binding a larger partner.
T1 sequence (Q9NZI8 whole entry): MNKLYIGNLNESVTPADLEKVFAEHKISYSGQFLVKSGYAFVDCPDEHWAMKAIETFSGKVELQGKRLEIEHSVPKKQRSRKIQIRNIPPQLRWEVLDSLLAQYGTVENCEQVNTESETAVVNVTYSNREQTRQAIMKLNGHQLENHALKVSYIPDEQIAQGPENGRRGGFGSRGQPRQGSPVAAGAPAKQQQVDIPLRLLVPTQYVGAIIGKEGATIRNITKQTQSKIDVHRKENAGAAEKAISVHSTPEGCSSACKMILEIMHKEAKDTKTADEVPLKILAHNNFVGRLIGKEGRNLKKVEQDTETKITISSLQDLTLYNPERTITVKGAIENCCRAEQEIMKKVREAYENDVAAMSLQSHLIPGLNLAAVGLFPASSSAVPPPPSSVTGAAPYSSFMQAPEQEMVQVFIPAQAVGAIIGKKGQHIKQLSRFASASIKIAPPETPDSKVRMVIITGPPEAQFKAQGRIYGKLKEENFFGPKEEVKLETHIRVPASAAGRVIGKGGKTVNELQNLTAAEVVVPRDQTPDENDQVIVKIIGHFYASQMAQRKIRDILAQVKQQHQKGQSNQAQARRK
Data set [3] is described as follows: Cytotoxicity against human Huh-7 cells assessed as reduction in cell viability incubated for 24 hrs by MTT assay.
For data set [4], the target named is T1, Insulin-like growth factor 2 mRNA-binding protein 1. Kind of data set: Binding affinity to human recombinant IGF2BP1 assessed as dissociation constant by SPR analysis.
For another data set, the system named is HL-60. The data set can be described thus: Antiproliferative activity against human HL-60 cells assessed as reduction in cell viability incubated for 24 hrs by MTT assay. As to conditions: HL-60, 24 h. Background: Tetrazolium dyes change colour on reduction, which living cells bring about.
The next data set concerns K562. Kind of data set: Antiproliferative activity against human K562 cells assessed as reduction in cell viability incubated for 24 hrs by MTT assay. As to conditions: K562, 24 h.
The nature of data set [5]: Inhibition of full length IMP-1 (unknown origin) binding to fluorescein labeled 93 nucleotide c-Myc mRNA expressed in Escherichia coli BL21 (DE3) pLysS by FAMA method.
For another data set, the system named is NCI-H1299. The data set can be described thus: Antiproliferative activity against human NCI-H1299 cells assessed as reduction in cell growth incubated for 24 hrs by MTT assay. The note with it: NCI-H1299, 24 h.
Data set [6] concerns the target T1, Insulin-like growth factor 2 mRNA-binding protein 1. Kind of data set: Binding affinity to IGF2BP1 (unknown origin) assessed as dissociation constant by MST assay.
For a further data set, the system named is THP-1. The data set can be described thus: Antiproliferative activity against human THP-1 cells assessed as reduction in cell growth incubated for 24 hrs by MTT assay. The note with it: THP-1, 24 h.

A word on the IC50: it is the concentration needed to halve the response being measured. Usually Kd stands for a measure of binding affinity in units of concentration.

Sequence of Insulin-like growth factor 2 mRNA-binding protein 2 (Q9Y6M1 whole entry): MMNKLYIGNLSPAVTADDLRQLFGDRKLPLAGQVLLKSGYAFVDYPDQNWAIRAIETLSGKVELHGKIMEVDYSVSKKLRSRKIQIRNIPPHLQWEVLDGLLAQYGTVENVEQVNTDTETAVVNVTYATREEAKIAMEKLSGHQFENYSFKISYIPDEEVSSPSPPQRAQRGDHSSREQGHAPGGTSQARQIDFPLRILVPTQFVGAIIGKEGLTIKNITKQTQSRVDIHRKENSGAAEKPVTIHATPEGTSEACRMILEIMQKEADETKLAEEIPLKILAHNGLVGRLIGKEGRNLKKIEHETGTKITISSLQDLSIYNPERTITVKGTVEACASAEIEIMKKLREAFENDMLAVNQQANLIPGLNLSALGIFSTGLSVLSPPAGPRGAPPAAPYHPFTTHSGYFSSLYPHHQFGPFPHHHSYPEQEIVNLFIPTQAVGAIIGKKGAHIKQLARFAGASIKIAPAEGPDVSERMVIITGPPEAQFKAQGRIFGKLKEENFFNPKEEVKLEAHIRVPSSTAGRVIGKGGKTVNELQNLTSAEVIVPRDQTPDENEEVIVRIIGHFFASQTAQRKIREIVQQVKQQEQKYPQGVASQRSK

Turning to `CCCN(CCc1ccccc1)C(=O)Nc1cc(-c2ccc(Cl)c(Cl)c2)sc1C(=O)O`, the IC50 in data set [1] came to 65.3 µM.

For the compound `O=C(c1ccc(-n2cnnn2)cc1)N1CCCC(Nc2ccc3c(c2)OCO3)C1` (configuration not stated), the IC50 in data set [2] was found to be 91.1 µM. On to `O=C(Nc1ccc(OC(F)(F)F)cc1C(=O)O)c1ccc(-c2ccccc2)cc1`, for which the IC50 in [1] was found to be 81.3 µM. For `CC(=O)OC(C)(C)/C=C/C(=O)[C@](C)(O)[C@H]1[C@H](O)C[C@@]2(C)[C@@H]3CC=C4[C@@H](C[C@H](O)C(=O)C4(C)C)[C@]3(C)C(=O)C[C@]12C`, the IC50 at 24 h in data set [3] turned out to be 4.1 µM. Further, the dissociation constant Kd in data set [4] was found to be 1200 nM. Turning to `NC(=O)c1ccccc1/N=C/c1ccc(Br)s1`, the half-maximal inhibitory concentration (IC50) was 21.6 µM in the data set on HL-60, 6.76 µM in the data set on K562 and 5 µM in data set [5]. For the compound `CCN(Cc1ccccc1)C(=O)Nc1cc(-c2ccc(C(F)(F)F)cc2)sc1C(=O)O`, the half-maximal inhibitory concentration (IC50) in data set [1] turned out to be 121 µM. On to `O=C(c1ccc(Cn2cc(CO)c3ccccc32)cc1)N1CCN(c2ccc3c(c2)OCO3)CC1`, for which, in the data set with NCI-H1299, the 50% inhibitory concentration (IC50) stood at 800 nM. Also, the equilibrium dissociation constant (Kd) in data set [6] stood at 1400 nM. Turning to `Oc1ccc(Cl)cc1/C=N\N/C(=N/N=C/c1cc(Cl)ccc1O)N/N=C/c1cc(Cl)ccc1O`, in the data set with THP-1, the IC50 was found to be 200 nM.
